Measured values published in US6358885B1, “Substituted phenylheterocyclic herbicides” (Mississippi State University, priority 1992, dated 2002).

Tests used:
[1] = system: duck salad; experiment: Test C flood test plant response rating 0 to 100; format: in vivo, Heteranthera limosa; conditions: for Plant response rating Duck salad: flood test species listed under POSTEMERGENCE, 0 to 100 scale
Source text: (§1) The compounds evaluated in this test were formulated in a non-phytoxic solvent and applied to the soil surface before plant seedlings emerged (preemergence application), to water that covered the soil surface (flood application), and to plants that were in the one-to-four leaf stage (postemergence application). A sandy loam soil was used for the preemergence and postemergence tests, while a silt loam soil was used in the flood test. Water depth was approximately 2.5 cm for the flood test and was maintained at this level for the duration of the test. Plant species in the preemergence and postemergence tests consisted of barley (Hordeum vulgare), bedstraw (Galium aparine), blackgrass (Alopecurus myosuroides), chickweed (Stellaria media), corn (Zea mays), cotton (Gossypium hirsutum), crabgrass (Digitaria sanguinalis), downy brome (Bromus tectorum), giant foxtail (Setaria faberii), lambsquarters (Chenopodium album), morningglory (Ipomoea hederacea), pigweed ([…]), rape (Brassica napus), ryegrass (Lolium multiflorum), sorghum (Sorghum bicolor), soybean (Glycine max), speedwell (Veronica persica), sugar beet (Beta vulgaris), velvetleaf (Abutilon theophrasti), wheat (Triticum aestivum), wild buckwheat (Polygonum convolvulus), and wild oat (Avena fatua). All plant species were planted one day before application of the compound for the preemergence portion-of this test. Plantings of these species were adjusted to produce plants of appropriate size for the post-emergence portion of the test. […] All plant species were grown using normal greenhouse practices. Visual evaluations of injury expressed on treated plants, when compared to untreated controls, were recorded approximately fourteen to twenty one days after application of the test compound. […] A dash (-) response means no test result.

[2] = system: corn; experiment: Test C preemergence/postemergence greenhouse plant response rating 0 to 100; format: in vivo, Zea mays; conditions: POSTEMERGENCE; for Plant response rating, Corn: 0 to 100 scale
Source text: as §1

[3] = system: umbrella sedge; experiment: Test C flood test plant response rating 0 to 100; format: in vivo, Cyperus difformis; conditions: for Plant response rating Umbrella sedge: flood test species listed under POSTEMERGENCE, 0 to 100 scale
Source text: as §1

[4] = system: velvetleaf; experiment: Test C preemergence/postemergence greenhouse plant response rating 0 to 100; format: in vivo, Abutilon theophrasti; conditions: POSTEMERGENCE; for Plant response rating, Velvetleaf: 0 to 100 scale
Source text: as §1

[5] = system: purple nutsedge; experiment: Test B preemergence/postemergence greenhouse plant response rating 0 to 10; format: in vivo, Cyperus rotundus; conditions: 0 to 10 scale
Summary of the method: (§2)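 Planted seeds are treated preemergence with compound dissolved in a non-phytotoxic solvent, while postemergence applications go onto plants of two to eighteen cm. Plants stay in the greenhouse twelve to sixteen days and are then rated visually relative to controls.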

[6] = system: soybean; experiment: as above; format: in vivo, Glycine max; conditions: 0 to 10 scale
Summary of the method: as §2

[7] = system: wild buckwheat; experiment: as above; format: in vivo, Polygonum convolvulus; conditions: 0 to 10 scale
Summary of the method: as §2

[8] = system: chickweed; experiment: Test C preemergence/postemergence greenhouse plant response rating 0 to 100; format: in vivo, Stellaria media; conditions: POSTEMERGENCE; for Plant response rating, Chickweed: 0 to 100 scale
Source text: as §1

[9] = system: cotton; experiment: as above; format: in vivo, Gossypium hirsutum; conditions: POSTEMERGENCE; for Plant response rating, Cotton: 0 to 100 scale
Source text: as §1

[10] = system: rice; experiment: Test C flood test plant response rating 0 to 100; format: in vivo, Oryza sativa; conditions: for Plant response rating Rice Japonica: flood test species listed under POSTEMERGENCE, 0 to 100 scale
Source text: as §1

[11] = system: blackgrass; experiment: Test C preemergence/postemergence greenhouse plant response rating 0 to 100; format: in vivo, Alopecurus myosuroides; conditions: POSTEMERGENCE; for Plant response rating, Blackgrass: 0 to 100 scale
Source text: as §1

[12] = system: rice; experiment: Test B preemergence/postemergence greenhouse plant response rating 0 to 10; format: in vivo, Oryza sativa; conditions: 0 to 10 scale
Summary of the method: as §2

[13] = system: sugar beet; experiment: Test C preemergence/postemergence greenhouse plant response rating 0 to 100; format: in vivo, Beta vulgaris; conditions: POSTEMERGENCE; for Plant response rating, Sugar beet: 0 to 100 scale
Source text: as §1

[14] = system: giant foxtail; experiment: as above; format: in vivo, Setaria faberii; conditions: POSTEMERGENCE; for Plant response rating, Giant foxtail: 0 to 100 scale
Source text: as §1

[15] = system: bedstraw; experiment: as above; format: in vivo, Galium aparine; conditions: POSTEMERGENCE; for Plant response rating, Bedstraw: 0 to 100 scale
Source text: as §1

[16] = system: cocklebur; experiment: Test B preemergence/postemergence greenhouse plant response rating 0 to 10; format: in vivo, Xanthium pensylvanicum; conditions: for Plant response rating, Cocklebur: 0 to 10 scale
Summary of the method: as §2

[17] = system: pigweed; experiment: Test C preemergence/postemergence greenhouse plant response rating 0 to 100; format: in vivo, Amaranthusretroflexus; conditions: POSTEMERGENCE; for Plant response rating Pigweed: 0 to 100 scale
Source text: as §1

[18] = POSTEMERGENCE section, flood test, Rate 4 g/ha
[19] = Rate 16 g/ha, under POSTEMERGENCE head (flood test species)

**Q.** What does the source list for `COC(=O)C(C)Oc1cc(-c2nn3c(c2Cl)CCCC3)c(F)cc1Cl` (centres unmarked) [Compound 28]?
**A.** Plant response rating (0 to 100), Duck salad [1, 18]: 0; Plant response rating (0 to 100), Duck salad [1, 19]: 0; Plant response rating Duck salad ([1]; 62 g/ha): 30; Plant response rating Duck salad ([1]; 250 g/ha): 70; Plant response rating, Corn ([2]; 62 g/ha): 80; Plant response rating, Corn ([2]; 250 g/ha): 90; Plant response rating (0 to 100), Corn ([2]; Rate 4 g/ha): 20; Plant response rating (0 to 100), Corn ([2]; Rate 16 g/ha): 25; Plant response rating (0 to 100), Umbrella sedge [3, 18]: 0; Plant response rating (0 to 100), Umbrella sedge [3, 19]: 0; Plant response rating Umbrella sedge ([3]; 62 g/ha): 20; Plant response rating Umbrella sedge ([3]; 250 g/ha): 70; Plant response rating, Velvetleaf ([4]; 62 g/ha): 100; Plant response rating, Velvetleaf ([4]; 250 g/ha): 100; Plant response rating (0 to 100), Velvetleaf ([4]; Rate 4 g/ha): 100; Plant response rating (0 to 100), Velvetleaf ([4]; Rate 16 g/ha): 100; Plant response rating, Nutsedge ([5]; POSTEMERGENCE, Rate 50 g/ha): 2; Plant response rating, Nutsedge ([5]; POSTEMERGENCE, Rate 200 g/ha): 5; Plant response rating, Nutsedge ([5]; PREEMERGENCE, Rate 50 g/ha): 0; Plant response rating, Nutsedge ([5]; Rate 200 g/ha, PREEMERGENCE): 0; Plant response rating, Soybean ([6]; POSTEMERGENCE, Rate 50 g/ha): 8; Plant response rating, Soybean ([6]; POSTEMERGENCE, Rate 200 g/ha): 9; Plant response rating, Soybean ([6]; PREEMERGENCE, Rate 50 g/ha): 0; Plant response rating, Soybean ([6]; Rate 200 g/ha, PREEMERGENCE): 0; Plant response rating, Wild buckwheat ([7]; POSTEMERGENCE, Rate 50 g/ha): 9; Plant response rating, Wild buckwheat ([7]; POSTEMERGENCE, Rate 200 g/ha): 10; Plant response rating, Wild buckwheat ([7]; PREEMERGENCE, Rate 50 g/ha): 7; Plant response rating, Wild buckwheat ([7]; Rate 200 g/ha, PREEMERGENCE): 7; Plant response rating, Chickweed ([8]; 62 g/ha): 80; Plant response rating, Chickweed ([8]; 250 g/ha): 80; Plant response rating (0 to 100), Chickweed ([8]; Rate 4 g/ha): 20; Plant response rating (0 to 100), Chickweed ([8]; Rate 16 g/ha): 50; Plant response rating, Cotton ([9]; 62 g/ha): 100; Plant response rating, Cotton ([9]; 250 g/ha): 100; Plant response rating (0 to 100), Cotton ([9]; Rate 4 g/ha): 100; Plant response rating (0 to 100), Cotton ([9]; Rate 16 g/ha): 100; Plant response rating (0 to 100), Rice Japonica [10, 18]: 0; Plant response rating (0 to 100), Rice Japonica [10, 19]: 45; Plant response rating Rice Japonica ([10]; 62 g/ha): 65; Plant response rating Rice Japonica ([10]; 250 g/ha): 85; Plant response rating, Blackgrass ([11]; 62 g/ha): 50; Plant response rating, Blackgrass ([11]; 250 g/ha): 70; Plant response rating (0 to 100), Blackgrass ([11]; Rate 4 g/ha): 20; Plant response rating (0 to 100), Blackgrass ([11]; Rate 16 g/ha): 30; Plant response rating, Rice ([12]; POSTEMERGENCE, Rate 50 g/ha): 5; Plant response rating, Rice ([12]; POSTEMERGENCE, Rate 200 g/ha): 7; Plant response rating, Rice ([12]; PREEMERGENCE, Rate 50 g/ha): 0; Plant response rating, Rice ([12]; Rate 200 g/ha, PREEMERGENCE): 2; Plant response rating, Sugar beet ([13]; 62 g/ha): 100; Plant response rating, Sugar beet ([13]; 250 g/ha): 100; Plant response rating (0 to 100), Sugar beet ([13]; Rate 4 g/ha): 100; Plant response rating (0 to 100), Sugar beet ([13]; Rate 16 g/ha): 100; Plant response rating, Giant foxtail ([14]; 62 g/ha): 100; Plant response rating, Giant foxtail ([14]; 250 g/ha): 100; Plant response rating (0 to 100), Giant foxtail ([14]; Rate 4 g/ha): 20; Plant response rating (0 to 100), Giant foxtail ([14]; Rate 16 g/ha): 60; Plant response rating, Bedstraw ([15]; 62 g/ha): 100; Plant response rating, Bedstraw ([15]; 250 g/ha): 100; Plant response rating (0 to 100), Bedstraw ([15]; Rate 4 g/ha): 90; Plant response rating (0 to 100), Bedstraw ([15]; Rate 16 g/ha): 100; Plant response rating (0 to 10 scale), Cocklebur ([16]; POSTEMERGENCE, Rate 50 g/ha): 9; Plant response rating, Cocklebur ([16]; POSTEMERGENCE, Rate 200 g/ha): 10; Plant response rating, Cocklebur ([16]; PREEMERGENCE, Rate 50 g/ha): 0; Plant response rating, Cocklebur ([16]; Rate 200 g/ha, PREEMERGENCE): 1; Plant response rating Pigweed ([17]; 62 g/ha): 100; Plant response rating Pigweed ([17]; 250 g/ha): 100; Plant response rating (0 to 100), Pigweed ([17]; Rate 4 g/ha): 100; Plant response rating (0 to 100), Pigweed ([17]; Rate 16 g/ha): 100
